Test results from the supplement of paper PMC11451515.

Columns and labels:
Assay in all cases: AUC of viability dose-response curve (% viability x log10 dose units); higher = less sensitive
Conditions in all cases: 48 h
SEM cells = test system: SEM cells
Outline: (§1)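 In 1536-well plates, leukemia cells adapted to each medium (500 or 1000 cells/well) were exposed for 48 h at 37°C to library compounds in DMSO across 11 threefold doses, 47 μM down to 0.79 nM. Viability was read by CellTiter-Glo One luminescence and normalised per plate to DMSO and cell-free wells. A four-parameter log-logistic fit over log10 doses was integrated by trapezoidal rule. This yielded the area under the curve, with over-full-viability curves scaled and quality-control failures dropped.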

P12-Ichikawa = test system: P12-Ichikawa
Outline: as §1

NOMO1 = test system: NOMO1
Outline: as §1

[1] = RPMI 5 mM glucose + 10% dialyzed FBS

Row | SMILES | AUC of viability dose-response curve (SEM cells; HPLM + 10% dialyzed FBS) | AUC of viability dose-response curve (SEM cells; RPMI 5 mM glucose + 10% FBS) | AUC of viability dose-response curve (SEM cells; [1]) | AUC of viability dose-response curve (P12-Ichikawa; HPLM + 10% dialyzed FBS) | AUC of viability dose-response curve (P12-Ichikawa; RPMI 5 mM glucose + 10% FBS) | AUC of viability dose-response curve (P12-Ichikawa; [1]) | AUC of viability dose-response curve (NOMO1; HPLM + 10% dialyzed FBS) | AUC of viability dose-response curve (NOMO1; RPMI 5 mM glucose + 10% FBS) | AUC of viability dose-response curve (NOMO1; [1])
1 | CN[C@H]1CCC2=CC(=C(OC)C(=C2C/3=C/C=C(OC)\C(=O)/C=C13)OC)OC | 159 | 144 | 148 | 151 | 147 | 158 | 205 | 174 | 206
2 | CCOC(=O)c1ccc(OC(=O)CCCCCNC(=N)N)cc1 | 436 | 385 | 418 | 354 | 413 | 407 | 410 | 444 | 437
3 | O=C1NC(=O)/C(=C/c2ccc3nccc(-c4ccncc4)c3c2)S1 | 289 | 290 | 290 | 341 | 308 | 317 | 293 | 351 | 296
4 | ClC1=CC=C(C=C1)C(C#N)C2=C(Cl)C=C(C=C2Cl)N3\N=C/C(=O)NC3=O (stereo not drawn) | 428 | 415 | 451 | 460 | 454 | 459 | 453 | 458 | 455
5 | CC1CNc2c(cccc2[S+](=O)([O-])N[C@@H](CCCNC(=N)N)C(=O)N2CC[C@@H](C)C[C@@H]2C(=O)O)C1 (stereo partly drawn) | 453 | 450 | 462 | 468 | 473 | 472 | 435 | 465 | 465
6 | CN[C@@H]1[C@@H](O)[C@@H](O[C@@H]2[C@@H](O)[C@H](O[C@H]3O[C@H](CN)[C@@H](O)[C@H](O)[C@H]3O)[C@@H](N)C[C@H]2NC(=O)[C@@H](O)CN)OC[C@]1(C)O | 453 | 463 | 468 | 457 | 449 | 411 | 452 | 457 | 440
7 | O=C(O)CCC1CCC(c2cc(F)ccc2F)([S+](=O)([O-])c2ccc(Cl)cc2)CC1 (stereo not drawn) | 464 | 470 | 468 | 403 | 412 | 428 | 373 | 357 | 378
8 | Nc1ncnc2c1ncn2[C@@H]1O[C@@H](CO)[C@H](O)[C@@H]1O | 467 | 466 | 449 | 464 | 477 | 472 | 454 | 467 | 441
9 | C[C@](Cc1c[nH]c2ccccc12)(NC(=O)OC1C2CC3CC(C2)CC1C3)C(=O)NC[C@H](NC(=O)CCC(=O)O)c1ccccc1 (stereo partly drawn) | 447 | 433 | 430 | 469 | 461 | 456 | 455 | 413 | 435
10 | CCOC(=O)N1CCN(/[N+]([O-])=N/Oc2ccc([N+](=O)[O-])cc2C#N)CC1 | 331 | 327 | 331 | 328 | 324 | 328 | 390 | 383 | 382
11 | COc1cc(F)c(F)c(Nc2ccc(I)cc2F)c1N[S+](=O)([O-])C1(C[C@H](O)CO)CC1 | 465 | 443 | 461 | 450 | 461 | 456 | 449 | 455 | 457
12 | CNCCCC12CCC(c3ccccc31)c1ccccc12 | 453 | 443 | 469 | 442 | 439 | 428 | 429 | 426 | 411
13 | CC1=C(C)C(=O)C(C(CCCCCC(=O)O)c2ccccc2)=C(C)C1=O (stereo not drawn) | 301 | 301 | 303 | 387 | 414 | 362 | 334 | 293 | 318
14 | O=C(C=CC#Cc1cccc(N[S+](=O)([O-])c2ccccc2)c1)NO | 354 | 358 | 352 | 353 | 345 | 346 | 367 | 374 | 371
15 | CC(C)c1ccc2c(c1)c(SC(C)(C)C)c(CC(C)(C)C(=O)[O-])n2Cc1ccc(Cl)cc1 | 473 | 456 | 455 | 457 | 445 | 423 | 452 | 436 | 403
16 | COC\1=C(/OC)C(=O)\C(=C(C)/C1=O)CCCCCCCCCCO | 460 | 471 | 456 | 471 | 456 | 459 | 461 | 464 | 468

Row | SMILES | AUC of viability dose-response curve (SEM cells; HPLM + 10% dialyzed FBS) | AUC of viability dose-response curve (SEM cells; RPMI 5 mM glucose + 10% FBS) | AUC of viability dose-response curve (SEM cells; [1]) | AUC of viability dose-response curve (P12-Ichikawa; HPLM + 10% dialyzed FBS) | AUC of viability dose-response curve (P12-Ichikawa; RPMI 5 mM glucose + 10% FBS) | AUC of viability dose-response curve (P12-Ichikawa; [1]) | AUC of viability dose-response curve (NOMO1; HPLM + 10% dialyzed FBS) | AUC of viability dose-response curve (NOMO1; RPMI 5 mM glucose + 10% FBS) | AUC of viability dose-response curve (NOMO1; [1])
17 | NNCCc1ccccc1 | 444 | 466 | 468 | 465 | 464 | 470 | 433 | 450 | 467
18 | CCCCC(=O)O[C@]1(C(=O)CO)[C@H](C)C[C@H]2[C@@H]3CCC4=CC(=O)C=C[C@]4(C)[C@@]3(F)[C@@H](O)C[C@@]21C | 378 | 362 | 350 | 372 | 315 | 292 | 467 | 474 | 472
19 | COC(=O)Nc1cc(Nc2cc(NC3CC3)c3ncc(C#N)n3n2)c(Cl)c(N2CCN(C)CC2)c1 | 363 | 346 | 328 | 423 | 400 | 392 | 384 | 385 | 368
20 | C[C@H]1COC2=C3N1\C=C(C(O)=O)/C(=O)C3=CC(=C2N4CCN(C)CC4)F | 398 | 373 | 420 | 427 | 429 | 416 | 426 | 454 | 441
21 | COC(=O)C[C@](O)(CCCC(C)(C)O)C(=O)O[C@@H]1C(OC)=CC23CCCN2CCc2cc4c(cc2[C@H]13)OCO4 (stereo partly drawn) | 462 | 452 | 471 | 458 | 458 | 458 | 458 | 466 | 466
22 | c1ccc2[nH]c(-c3cscn3)nc2c1 | 439 | 419 | 445 | 446 | 470 | 461 | 452 | 474 | 474
23 | CC[C@H](/C=C/[C@@H](C)[C@H]1CC[C@H]2[C@@H]3CC=C4C[C@@H](O)CC[C@]4(C)[C@H]3CC[C@]12C)C(C)C | 438 | 458 | 463 | 456 | 449 | 429 | 427 | 434 | 421
24 | C[C@]12CC[C@@H]3c4ccc(O)cc4CC[C@H]3[C@@H]1[C@@H](O)[C@@H](O)[C@@H]2O | 465 | 448 | 461 | 468 | 457 | 450 | 461 | 471 | 468
25 | C[C@]12COC(=O)C[C@@H]1CC[C@@H]1[C@@H]2CC[C@@]2(C)[C@H]1CC[C@]2(C)O | 451 | 457 | 447 | 457 | 463 | 471 | 472 | 443 | 443
26 | CNc1nc(Nc2ccc(C(=O)N3CCOCC3)cc2OC)ncc1Cl | 434 | 456 | 466 | 448 | 454 | 466 | 434 | 463 | 450
27 | C[C@]12CC[C@H]3[C@@H](CC[C@H]4NC(=O)\C=C/[C@]34C)[C@@H]1CC[C@@H]2C(=O)NC5=CC(=CC=C5C(F)(F)F)C(F)(F)F | 432 | 456 | 442 | 456 | 455 | 452 | 435 | 440 | 461
28 | CC(C)(O)CC[C@@H](O)[C@](C)(O)[C@H]1CC[C@@]2(O)C/3=C/C(=O)[C@@H]4C[C@@H](O)[C@@H](O)C[C@]4(C)[C@H]3CC[C@]12C | 434 | 449 | 412 | 453 | 444 | 429 | 410 | 421 | 429
29 | O=C(O)C1(Cc2cccc(Nc3nccs3)n2)CCC(Oc2cccc(Cl)c2F)CC1 (stereo not drawn) | 370 | 369 | 368 | 356 | 373 | 381 | 381 | 382 | 386
30 | CC(C)C1NC(=O)C(NC(=O)C2=C3\N=C\4/C(=C(C)\C(=O)\C(=C4C(=O)NC5C(C)OC(=O)C(C(C)C)N(C)C(=O)CN(C)C(=O)C6CCCN6C(=O)C(NC5=O)C(C)C)N)OC3=C(C)C=C2)C(C)OC(=O)C(C(C)C)N(C)C(=O)CN(C)C(=O)C7CCCN7C1=O (stereo not drawn) | 26.3 | 20.8 | 23.4 | 31.2 | 24.5 | 38 | 27.9 | 28.1 | 23
31 | Cc1c(C)n(Cc2ccc(-c3ccccc3C(=O)O)cc2)c2ccc(C(=O)N[C@@H](C)c3ccc([N+](=O)[O-])cc3)cc12 | 460 | 466 | 470 | 425 | 423 | 422 | 421 | 411 | 417
32 | CC(C)(C)OC(=O)N[C@H]1CCCCC/C=C\[C@@H]2C[C@@]2(C(=O)N[S+](=O)([O-])C2CC2)NC(=O)[C@@H]2C[C@@H](OC(=O)N3Cc4cccc(F)c4C3)CN2C1=O | 401 | 441 | 466 | 468 | 467 | 459 | 457 | 468 | 472
